Literature values in patent US20100124560A1, “MULTI PORTION INTRA-ORAL DOSAGE FORM AND USE THEREOF” (McNEIL AB, priority 2008, published 2010).
Read-outs that look alike come from different tables or passages of the source.

Legend:
[1] = pKa value lying in interval 8-9.6

SMILES	Solubility in water (in water) [g/kg]	further results
NC(=O)C[C@H](N)C(=O)O [Aspargine]	–	pKa value (in interval 8-9.6) [1]: 8.73
N[C@@H](CS(=O)(=O)O)C(=O)O [Cysteic acid]	–	Solubility in water, g/kg (in water): Very soluble
N[C@@H](Cc1c[nH]cn1)C(=O)O [Histidine]	43.5	–
CC[C@H](C)[C@H](N)C(=O)O [Isoleucine]	34.2	–
CC(C)C[C@H](N)C(=O)O [Leucine]	22.0	–
NCCCC[C@H](N)C(=O)O [Lysine]	–	Solubility in water, g/kg: Very soluble^a)b)
CSCC[C@H](N)C(=O)O [Methionine]	56	–
N[C@@H](Cc1ccccc1)C(=O)O [Phenylalanine]	27.9	–
N[C@@H](CO)C(=O)O [Serine]	–	pKa value (in interval 8-9.6) [1]: 9.05

More lines, main results first:

Solubility in water (in water) [g/kg]	SMILES	further results
42	NC(=O)CC[C@H](N)C(=O)O [Glutamine]	–
88.5	CC(C)[C@H](N)C(=O)O [Valine]	–
